Read-outs that look alike come from different tables or passages of the source.
Columns and labels:
[1] = tested on: HIV; assay: HIV infection in low versus high sulfate media; details: FIG. 20B
[2] = tested on: HIV; assay: HIV infection with suboptimal (20 mM) chlorate; details: FIG. 21B
[3] = tested on: VSV-G pseudotyped MLV vector (MMP-nls-lacZ[VSV-G]); assay type: cell-based, murine leukemia virus (MLV)
[4] = tested on: MLV vector pMMp-nls-LacZ[VSV-G]; assay type: cell-based, murine leukemia virus (MLV)
[5] = tested on: MLV vector pMMp-nls-LacZ[VSV-G]; assay type: cell-based, murine leukemia virus (MLV); remark: listed apart in the source
[6] = tested on: VSV-G pseudotyped MLV vector (pLEGFP); assay type: cell-based, murine leukemia virus (MLV)
[7] = tested on: MLV LTR-driven mRNA transcription (pCMMP-EGFP); assay type: cell-based, murine leukemia virus (MLV)
[8] = tested on: resident (pCMMP-SEAP) and newly acquired (MMP-nls-lacZ[VSV-G]) MLV proviruses; assay type: cell-based, murine leukemia virus (MLV)
[9] = tested on: VSV-G pseudotyped HIV-1 vector NL43E-R-Luc; assay type: cell-based
[10] = tested on: aryl sulfotransferases; details: cited from earlier work

SMILES: Cc1cn([C@H]2C[C@H](N=[N+]=[N-])[C@@H](CO)O2)c(=O)[nH]c1=O [AZT]
- inhibition of HIV infection in low sulfate media versus high sulfate media [1]: unaffected by low sulfate conditions
- inhibition of HIV infection in media containing 20 mM chlorate versus standard media [2]: unaffected by 20 mM chlorate

SMILES: [O-][Cl+2]([O-])O [chlorate]
- fold less blue cells as compared to untreated cells [3]: approximately 6.7 fold
- time of addition that had no effect on viral reporter gene expression [3]: ≥ 18 hpi
- time of addition that led to a reduction in subsequent viral reporter gene expression [3]: up to 16 hpi
- fold less susceptible to infection, by reporter gene expression [4]: approximately 9.3 fold
- additional reduction of MLV infection [5]: 2 fold
- effect on accumulation of viral reverse transcription products [6]: no effect
- reduction of viral-derived transcript levels, normalized to β-actin [7]: 11 fold
- effect on gene expression from newly acquired versus resident proviruses [8]: affected gene expression from the newly acquired, but not the resident proviruses
- influence on β-galactosidase expression from a resident MLV vector [8]: not to influence
- reduction in HIV LTR-driven reporter gene expression [9]: 10 fold

SMILES: COc1ccccc1O [guaiacol]
- fold less blue cells as compared to untreated cells [3]: ~3.4 fold
- reduction of viral-derived transcript levels, normalized to β-actin ([7]; CHO-K1 cells, 100 mM chlorate, 5 mM guaiacol or both, FIGS. 6D, 6E): 17 fold
- reduction in HIV LTR-driven reporter gene expression [9]: 8 fold
- quantities that interfere with aryl sulfotransferases [10]: mM

SMILES: Oc1cc(Cl)ccc1Oc1ccc(Cl)cc1Cl [trichlosan]
- quantities that interfere with aryl sulfotransferases [10]: μM
